Patent publication US20040186129A1, “2-Aroylimidazole compounds for treating cancer” (priority 2001, published 2004)
Like-named read-outs stand apart in the source and are kept apart here.

Assays:
HL-60/TX1000 = test: In vitro anti-cancer activity against multi-drug resistant cancer cells, MTS assay; format: cell-based; conditions: Homo sapiens, HL60/TX1000
Method: (§1) The cell lines were maintained in RPMI1640(GIBCO) supplemented with 10% FCS, 100 units/ml penicillin, 100 ug/ml streptomycin, and 2 mM L-glutamine. The cells were split every third day and diluted to a concentration of 2×10^5 cells/ml one day before experiment. All experiments were performed on exponentially growing cell culture. Cell densities were 2.5×10^4 cells/ml in all experiment.
(§2) A stock solution of Compound (1) was prepared by dissolving the compound at a concentration of 1 mM in 100% DMSO. Final concentrations were obtained by diluting the stock solution directly into the tissue culture medium. Cells were incubated with varying concentrations of the compounds for 72 hours and the IC50 was determined by MTS (i.e. […]) assay. IC50 stands for the concentration of compound required to inhibit 50% tumor cell growth.
(§3) In vitro activity was determined in two MDR (Multi Drug Resistant) human cancer cell lines. HL-60/TX1000 was isolated in vitro by subculturing HL-60 in progressively higher concentration of Taxol. HL-60/TX1000 cells over-express mdr-1 mRNA and p-glycoprotein, as determined by western blot and immunofluorescence labeling with antiPGP antibodies. The cell is cross-resistant to Taxol, Vincristine, Adriamycin, Etoposide and Doxorubicin. MES-SA/Dx5 was established in the presence of increasing concentrations of Doxorubicin. […] MES-SA/Dx5 was purchased from ATCC.
(§4) The procedure for culturing the cells and assaying cancer cell growth inhibition were as described in Example 12.
(§5) The protocol described in Examples 12-13 was used to assay inhibition by Compound (2)-(12) on the growth of the multidrug resistant cancer cell line MES-SA/DX5 and HL-60/TX1000.

MES-SA/DX5 = test: as above; format: cell-based; conditions: Homo sapiens
Method: as §1, §2, §3, §4, §5

[1] = system: human breast tumor (MDA435); test: Tumor growth inhibition assay, human breast tumor (MDA435) xenograft model; format: in vivo, mouse
Method: (§6) The in vivo anti-cancer efficacy of Compound (2) was assessed in tumor bearing mice using a tumor growth inhibition assay. Human breast tumor (MDA-435) cells were implanted by injection of a tumor cell suspension subcutaneously in the flank of a nude mouse. Treatment of the tumor with an experimental compound began after the tumor had been established (volume was approximately 100 mm^3). The animal then began a multiple injection schedule where the compound was administered orally. Tumors were measured two times a week. During the course of this assay, animals were monitored daily for signs of toxicity including body weight loss.
A supplemented media was prepared from 50% DMEM/Dulbecco Modified Eagle Medium (High Glucose), 50% RPMI 1640, 10% FBS/Fetal Bovine Serum (Hybridoma Tested; Sterile Filtered), 1% L-Glutamine, 1% Penicillin-Streptomycin, 1% MEM Sodium Pyruvate, 1% MEM Non-Essential Amino Acids. […]
The flask was washed with 10 ml of sterile room temperature phosphate buffered saline (PBS). […] The supernatant was aspirated and the cell pellet was resuspended in 10 ml of supplemented media and the cells were counted. […]
The above procedure for trypsinizing and centrifuging the cells were followed. The supernatant was aspirated and the cell pellet was resuspended in 10 ml of sterile PBS and the cells were counted. […]

[2] = Body weight of treated tumor bearing mice (signs of toxicity); format: in vivo, mouse
Method: as §6
A dosing solution for compound administration was prepared by dissolving 1 gram of Compound (2) in 10 ml of acetone (HPLC grade), and sonicated for 5 minutes using 550 Sonic Dismembrator. 1.2 equivalents of 1 N HCl aqueous solution were added to the acetone solution which was then sonicated for 5 minutes. All solvent was then evaporated from the solution by using Speed Vac Plus SC 250 DDA over night. The dried powder was used for preparing the dosing solution of Compound (2). 1% Methyl cellulose (MC) vehicle was prepared by dissolving 1.0 gram of Methyl cellulose, 400 cps, U.S.P. (Spectrum Laboratory Products, Cat. # ME136) in 100 mL of H2O. This mixture was then stirred for 12 hours at room temperature to produce a clear 1% MC solution. […]

MES-SA = test: In vitro anti-cancer activity, MTS assay, 72 hours; format: cell-based; conditions: Homo sapiens
Method: (§7) The in vitro activity of the compounds was determined in the following seven human cancer cell lines. MDA435 (human breast cancer), MIP10 (human colon cancer), HL-60 (human myeloid leukemia), U937 (human leukemia), p388 (murine leukemia), DU-145 (human prostate cancer), MES-SA (human uterine sarcoma) were obtained from ATCC (American Type of Culture Collection).
as §1, §2

HL-60 = test: In vitro anti-cancer activity, MTS assay, 72 hours; format: cell-based; conditions: Homo sapiens, HL-60, 72 hours
Method: as §7, §1, §2

H2 = test: In vitro anti-cancer activity, MTS assay, 72 hours; format: cell-based; conditions: Homo sapiens, H2, 72 hours
Method: as §7, §1, §2

DU-145 = test: In vitro anti-cancer activity, MTS assay, 72 hours; format: cell-based; conditions: Homo sapiens, DU-145, 72 hours
Method: as §7, §1, §2

MDA-435 = test: In vitro anti-cancer activity, MTS assay, 72 hours; format: cell-based; conditions: Homo sapiens, MDA435, MDA-435, 72 hours
Method: as §7, §1, §2

p388 = test: In vitro anti-cancer activity, MTS assay, 72 hours; format: cell-based, murine; conditions: Mus musculus, p388, 72 hours
Method: as §7, §1, §2

[3] = system: MDR cell lines (MES-SA/DX5, HL-60/TX1000); test: In vitro anti-cancer activity, summary over both MDR cell lines; format: cell-based, human
Method: as §1, §2
In vitro activity was determined in two MDR (Multi Drug Resistant) human cancer cell lines. HL-60/TX1000 was isolated in vitro by subculturing HL-60 in progressively higher concentration of Taxol. HL-60/TX1000 cells over-express mdr-1 mRNA and p-glycoprotein, as determined by western blot and immunofluorescence labeling with antiPGP antibodies. The cell is cross-resistant to Taxol, Vincristine, Adriamycin, Etoposide and Doxorubicin. […]

A549 = test: In vitro anti-cancer activity, MTS assay, 72 hours; format: cell-based; conditions: Homo sapiens, A549, 72 hours
seven cancer cell lines = test: In vitro anti-cancer activity, summary over seven cancer cell lines; format: cell-based; conditions: range over the seven cell lines of Table 1; read-out: IC50 against seven cancer cell lines
Method: as §7, §1, §2

[4] = HL-60/TX1000, Table 3, read-out: IC50 (uM) HL-60/TX1000
[5] = MES-SA/DX5, Table 3, read-out: IC50 (uM) MES-SA/DX5
[6] = HL-60/TX1000, Table 2, read-out: IC50
[7] = MES-SA/Dx5, MES-SA/DX-5, Table 2, read-out: IC50

SMILES | IC50 (HL-60/TX1000; [4]) [µM] | IC50 (MES-SA/DX5; [5]) [µM] | other results
N#Cc1ccc(Cn2cc(C(=O)c3nc4cnccc4[nH]3)c3ccccc32)cc1 [Compound 2] | 0.05 | 0.05 | tumor growth inhibition ([1]; MDA435 in nude mice, 25 mg/kg orally, 3 times a week for 3 weeks): significantly inhibits tumor growth; reduction of the volume of tumors ([1]; MDA435 tumors in nude mice, administered orally): greater than 50%; change in body weight ([2]; mice treated with Compound (2)): Little or no change in body weight; loss of weight ([2]; nude mice, 25 mg/kg orally, 3 times a week for 3 weeks): less than 5%
O=C(c1nc2cnccc2[nH]1)c1cn(Cc2ccc(Cl)c(Cl)c2)c2ccccc12 [Compound 3] | 0.04 | 0.05 | 
Cc1ccc(Cn2cc(C(=O)c3nc4cnccc4[nH]3)c3ccccc32)cc1 [Compound 4] | 0.05 | 0.05 | 
Cc1cccc2c(C(=O)c3nc4ccncc4[nH]3)cn(Cc3ccc(Cl)cc3)c12 [Compound 5] | 0.1 | 0.5 | 
O=C(c1nc2ccncc2[nH]1)c1cn(Cc2ccc(Cl)cc2)c2cc(F)ccc12 [Compound 6] | 0.05 | 0.05 | 
O=C(c1nc2ccncc2[nH]1)c1cc(Cc2ccc(Cl)cc2)n2ccccc12 [Compound 7] | 0.05 | 0.5 | 
COC(=O)c1cnc(C(=O)c2cn(Cc3ccc(Cl)cc3)c3ccccc23)[nH]1 [Compound 8, 2-[1-(4-chloro-benzyl)-1H-indole-3-carbonyl]-3H-imidazole-4-carboxylic acid methyl ester] | 0.05 | 0.1 | 
O=C(c1nc(-c2ccccn2)c[nH]1)c1cn(Cc2ccc(Cl)cc2)c2ccccc12 [Compound 9, [1-(4-Chloro-benzyl)-1H-indol-3-yl]-(4-pyridin-2-yl-1H-imidazol-2-yl)-methanone] | 0.5 | 0.5 | 
O=C(c1cccnc1)c1c[nH]c(C(=O)c2cn(Cc3ccc(Cl)cc3)c3ccccc23)n1 [Compound 10, [1-(4-Chlorobenzyl)-1H-indol-3-yl]-[4-(pyridine-3-carbonyl)-1H-imidazol-2-yl]methanone] | 0.5 | 0.5 | 
CCC(=O)c1c[nH]c(C(=O)c2cn(Cc3ccc(Cl)cc3)c3ccccc23)n1 [Compound 11] | 0.5 | 0.5 | 
CC1(C)COC(c2cnc(C(=O)c3cn(Cc4ccc(Cl)cc4)c4ccccc34)[nH]2)=N1 [Compound 12, [1-(4-chlorobenzyl)-1H-indol-3-yl]-[5-(4,4-dimethyl-4,5-dihydro-oxazol-2-yl)-1H-imidazo 1-2-yl]-methanone] | 0.5 | 0.5 | 
O=C(c1nc2cnccc2[nH]1)c1cn(Cc2ccc(Cl)cc2)c2ccccc12 [Compound (1)] |  |  | IC50 (MES-SA): 0.01 µM; IC50 (HL-60): 0.05 µM; IC50 (H2): 0.05 µM; IC50 (DU-145): 0.05 µM; IC50 (MDA-435): 0.05 µM; IC50 (p388): 0.05 µM; IC50 (HL-60/TX1000; [6]): 0.05 µM; IC50 (MES-SA/DX5; [7]): 0.05 µM; anti-cancer activity against MDR cancer cell lines ([3]; MES-SA/DX5 and HL-60/TX1000, in words): high anti-cancer activity; IC50 (A549): 0.05 µM; IC50 (seven cancer cell lines): 0.01 to 0.05 µM
CC(=O)O[C@H]1C(=O)[C@@]2(C)[C@H]([C@H](OC(=O)c3ccccc3)[C@]3(O)C[C@H](OC(=O)[C@H](O)[C@@H](NC(=O)c4ccccc4)c4ccccc4)C(C)=C1C3(C)C)[C@]1(OC(C)=O)CO[C@@H]1C[C@@H]2O [Taxol, reference compound] |  |  | IC50 (HL-60/TX1000; [6]): 5 µM; IC50 (MES-SA/DX5; [7]): 5 µM
CC[C@]1(O)C[C@H]2CN(CCc3c([nH]c4ccccc34)[C@@](C(=O)OC)(c3cc4c(cc3OC)N(C=O)[C@H]3[C@@](O)(C(=O)OC)[C@H](OC(C)=O)[C@]5(CC)C=CCN6CC[C@]43[C@@H]65)C2)C1 [Vincristine, reference compound] |  |  | IC50 (HL-60/TX1000; [6]): 5 µM; IC50 (MES-SA/DX5; [7]): 1 µM; IC50 ([3]; Homo sapiens, MES-SA/DX5 and HL-60/TX1000, text summary of Tables 2 and 3, read-out: IC50 against the MDR cell lines): 1 to 5 µM
